Patent US20230364019A1, “Multi-targeting cell-derived nanoparticles as a versatile theranostic” (Fondazione Istituto Italiano di Tecnologia, priority 2020, published 2023)

Tested on: U-251 MG cell line
Experiment: % cell proliferation of U-251 MG cell line after 72 h with non-encapsulated and encapsulated 3PO
Assay type: cell-based
Conditions: U-251 cells, inhibitor concentration 5 μM
Method: FIG. 5. % Cell proliferation of the U-251 MG cell line, after 72 h, using various concentrations of the non-encapsulated and encapsulated (UHT-CMNPs) model drug 3PO.
The ability of the F-CMNPs to act as drug delivery systems was also studied. […] As a proof of concept, we loaded the glucose inhibitor (2E)-3-(3-Pyridinyl)-1-(4-pyridinyl)-2-propen-1-one (3PO) in the F-CMNPs.

## O=C(/C=C/c1cccnc1)c1ccncc1 [3PO, (2E)-3-(3-Pyridinyl)-1-(4-pyridinyl)-2-propen-1-one]
  reduction of cells' proliferation: not affecting
